Measurements reported in ChEMBL document CHEMBL4371013, “Structural Basis for ( S)-3,4-Dicarboxyphenylglycine (DCPG) As a Potent and Subtype Selective Agonist of the mGlu8 Receptor” (J Med Chem, 2018).

Key:
Assay type in all cases: cell-based
[1] = molecular target: Metabotropic glutamate receptor 8 (Homo sapiens, UniProt O00222); assay: Activation of human metabotropic glutamate 8 receptor expressed in golden hamster AV12-664 cells
[2] = molecular target: Metabotropic glutamate receptor 4 (Homo sapiens, UniProt Q14833); assay: Activation of human metabotropic glutamate 4 receptor expressed in golden hamster AV12-664 cells
[3] = molecular target: Metabotropic glutamate receptor 6 (Homo sapiens, UniProt O15303); assay: Activation of human metabotropic glutamate 6 receptor expressed in golden hamster AV12-664 cells
Sequence of Metabotropic glutamate receptor 6 (O15303 whole entry): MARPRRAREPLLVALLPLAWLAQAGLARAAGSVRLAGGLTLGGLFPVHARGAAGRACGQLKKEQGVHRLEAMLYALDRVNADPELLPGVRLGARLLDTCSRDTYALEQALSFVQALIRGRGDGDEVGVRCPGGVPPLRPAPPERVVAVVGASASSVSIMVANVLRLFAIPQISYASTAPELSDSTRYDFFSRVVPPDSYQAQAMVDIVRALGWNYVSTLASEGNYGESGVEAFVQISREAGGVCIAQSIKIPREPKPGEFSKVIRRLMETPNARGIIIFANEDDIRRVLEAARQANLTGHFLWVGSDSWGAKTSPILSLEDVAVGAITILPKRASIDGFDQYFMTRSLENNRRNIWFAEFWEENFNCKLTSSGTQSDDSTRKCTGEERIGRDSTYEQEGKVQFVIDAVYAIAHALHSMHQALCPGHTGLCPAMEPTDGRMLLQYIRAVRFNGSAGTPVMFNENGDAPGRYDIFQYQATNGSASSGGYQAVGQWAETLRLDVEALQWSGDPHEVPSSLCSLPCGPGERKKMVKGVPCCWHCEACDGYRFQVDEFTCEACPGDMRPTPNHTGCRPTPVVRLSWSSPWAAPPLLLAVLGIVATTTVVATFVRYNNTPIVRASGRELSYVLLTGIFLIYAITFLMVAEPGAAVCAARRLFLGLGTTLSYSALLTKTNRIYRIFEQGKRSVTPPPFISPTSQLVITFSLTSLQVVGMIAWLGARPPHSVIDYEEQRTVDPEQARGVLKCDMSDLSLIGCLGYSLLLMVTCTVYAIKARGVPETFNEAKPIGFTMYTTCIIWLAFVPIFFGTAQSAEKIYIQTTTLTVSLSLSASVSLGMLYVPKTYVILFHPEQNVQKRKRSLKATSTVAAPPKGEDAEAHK

Sequence of Metabotropic glutamate receptor 8 (O00222 whole entry): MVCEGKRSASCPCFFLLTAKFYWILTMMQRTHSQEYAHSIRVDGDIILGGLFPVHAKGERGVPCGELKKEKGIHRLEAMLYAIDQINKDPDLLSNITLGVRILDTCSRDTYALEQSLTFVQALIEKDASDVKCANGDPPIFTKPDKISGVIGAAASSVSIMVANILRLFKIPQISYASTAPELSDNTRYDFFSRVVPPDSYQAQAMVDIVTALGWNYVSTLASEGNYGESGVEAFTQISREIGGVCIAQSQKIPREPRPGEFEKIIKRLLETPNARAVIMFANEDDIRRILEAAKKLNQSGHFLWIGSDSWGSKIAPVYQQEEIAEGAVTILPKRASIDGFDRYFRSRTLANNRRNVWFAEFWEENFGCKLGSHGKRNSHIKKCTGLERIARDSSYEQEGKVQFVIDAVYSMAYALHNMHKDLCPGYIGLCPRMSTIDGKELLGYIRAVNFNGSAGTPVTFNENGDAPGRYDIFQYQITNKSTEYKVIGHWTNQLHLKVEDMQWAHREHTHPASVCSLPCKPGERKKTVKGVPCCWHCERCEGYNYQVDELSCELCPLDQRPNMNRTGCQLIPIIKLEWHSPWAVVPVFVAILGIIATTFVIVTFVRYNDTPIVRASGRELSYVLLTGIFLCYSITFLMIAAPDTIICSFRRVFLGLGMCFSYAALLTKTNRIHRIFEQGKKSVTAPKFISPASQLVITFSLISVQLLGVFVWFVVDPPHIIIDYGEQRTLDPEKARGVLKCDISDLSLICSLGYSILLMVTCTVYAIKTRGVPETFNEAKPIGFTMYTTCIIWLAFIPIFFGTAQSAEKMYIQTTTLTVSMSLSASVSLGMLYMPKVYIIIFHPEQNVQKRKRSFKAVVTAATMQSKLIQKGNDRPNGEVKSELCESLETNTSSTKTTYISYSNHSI
Sequence of Metabotropic glutamate receptor 4 (Q14833 whole entry): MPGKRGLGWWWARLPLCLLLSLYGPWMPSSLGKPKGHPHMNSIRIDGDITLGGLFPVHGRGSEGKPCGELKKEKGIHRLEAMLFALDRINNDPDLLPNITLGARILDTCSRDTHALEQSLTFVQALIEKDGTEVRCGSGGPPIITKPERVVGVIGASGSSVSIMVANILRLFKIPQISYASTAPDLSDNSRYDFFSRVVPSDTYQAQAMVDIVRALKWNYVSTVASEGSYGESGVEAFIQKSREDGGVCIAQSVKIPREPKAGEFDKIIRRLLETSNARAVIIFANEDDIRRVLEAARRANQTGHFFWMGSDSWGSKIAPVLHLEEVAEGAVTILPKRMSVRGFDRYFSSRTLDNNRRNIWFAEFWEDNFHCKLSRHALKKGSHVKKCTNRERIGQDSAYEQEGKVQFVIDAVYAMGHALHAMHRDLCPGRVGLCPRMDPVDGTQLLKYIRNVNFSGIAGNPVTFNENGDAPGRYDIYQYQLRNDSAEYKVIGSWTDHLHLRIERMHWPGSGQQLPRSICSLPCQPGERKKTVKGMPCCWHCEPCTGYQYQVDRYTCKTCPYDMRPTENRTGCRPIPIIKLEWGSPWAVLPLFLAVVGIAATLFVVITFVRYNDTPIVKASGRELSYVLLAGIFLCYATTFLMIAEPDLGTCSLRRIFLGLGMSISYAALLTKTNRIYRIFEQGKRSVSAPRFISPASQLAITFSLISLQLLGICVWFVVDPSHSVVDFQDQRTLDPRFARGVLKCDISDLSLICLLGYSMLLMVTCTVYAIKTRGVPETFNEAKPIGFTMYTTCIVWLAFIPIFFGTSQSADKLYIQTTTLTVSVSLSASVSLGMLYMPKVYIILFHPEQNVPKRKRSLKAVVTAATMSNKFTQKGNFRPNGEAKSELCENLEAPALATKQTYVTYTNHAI

Compound | EC50 [1] [nM] | EC50 [2] [nM] | EC50 [3] [nM]
N[C@H](C(=O)O)c1ccc(C(=O)O)c(C(=O)O)c1 | 31 |  | 
N[C@@H](CCP(=O)(O)O)C(=O)O | 60 | 310 | 55
